Assay results as given in patent US20230143612A1 (Arbutus Biopharma Corporation, priority 2020, published 2023).

Target: PD-L1 His protein / PD-1 Fc protein (Homo sapiens, UniProt Q9NZQ7)
Assay: HTRF Assay (PD-1/PD-L1 interaction)
Type: binding
Settings: PD-L1 His 6 nM, PD-1 Fc 6 nM
Procedure, shortened: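 Compounds tested from 20 μM down to 0.001 μM (3-fold) against 6 nM PD-L1 His and 6 nM PD-1 Fc, 15 min room temperature incubation. Detection after 1 h at room temperature with Tb cryptate anti-6HIS and XL665 anti-human IgG reagents (mixture at 0.35 nM and 6.7 nM), HTRF signal.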

PD-L1 His protein / PD-1 Fc protein, sequence (Q9NZQ7 19-238 limits assumed): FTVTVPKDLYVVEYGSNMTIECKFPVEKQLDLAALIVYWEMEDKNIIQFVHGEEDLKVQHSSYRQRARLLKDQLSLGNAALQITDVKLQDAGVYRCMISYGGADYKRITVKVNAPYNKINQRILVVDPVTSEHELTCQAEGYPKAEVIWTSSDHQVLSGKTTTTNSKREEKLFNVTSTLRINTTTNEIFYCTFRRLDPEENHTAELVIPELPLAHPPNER

SMILES	IC50
COc1nc(-c2cccc(-c3cccc(-c4cc(C)n5c(=O)c(CN[C@H]6C[C@@](C)(O)C6)cnc5c4)c3Cl)c2Cl)ccc1CNC[C@@H]1CCC(=O)N1 [Example 254, 8-(2,2′-Dichloro-3′-(6-methoxy-5-(((((S)-5-oxopyrrolidin-2-yl)methyl)amino)methyl)pyridin-2-yl)-[1,1′-biphenyl]-3-yl)-3-((((1s,3s)-3-hydroxy-3-methylcyclobutyl)amino)methyl)-6-methyl-4H-pyrido[1,2-a]pyrimidin-4-one]	61 nM
CNC(=O)C1CN(Cc2cnc3cc(-c4cccc(-c5cccc(-c6ccc(CNC[C@@H]7CCC(=O)N7)c(OC)n6)c5Cl)c4Cl)ccn3c2=O)C1 [Example 255, (S)-1-((8-(2,2′-Dichloro-3′-(6-methoxy-5-((((5-oxopyrrolidin-2-yl)methyl)amino)methyl)pyridin-2-yl)-[1,1′-biphenyl]-3-yl)-4-oxo-4H-pyrido[1,2-a]pyrimidin-3-yl)methyl)-N-methylazetidine-3-carboxamide]	0.1 nM
COc1nc(-c2cccc(-c3cccc(-c4ccn5c(=O)c(CNC6CCN(C(C)=O)CC6)cnc5c4)c3Cl)c2Cl)ccc1CNC[C@@H]1CCC(=O)N1 [Example 256, 3-[[(1-Acetyl-4-piperidyl)amino]methyl]-8-[2-chloro-3-[2-chloro-3-[6-methoxy-5-[[[(2S)-5-oxopyrrolidin-2-yl]methylamino]methyl]-2-pyridyl]phenyl]phenyl]pyrido[1,2-a]pyrimidin-4-one]	0.1 nM
CNC(=O)[C@H]1CCN(Cc2cnc3cc(-c4cccc(-c5cccc(-c6ccc(CNC[C@@H]7CCC(=O)N7)c(OC)n6)c5Cl)c4Cl)ccn3c2=O)C1 [Example 257, (S)-1-((8-(2,2′-Dichloro-3′-(6-methoxy-5-(((((S)-5-oxopyrrolidin-2-yl)methyl)amino)methyl)pyridin-2-yl)-[1,1′-biphenyl]-3-yl)-4-oxo-4H-pyrido[1,2-a]pyrimidin-3-yl)methyl)-N-methylpyrrolidine-3-carboxamide]	1.9 nM
COc1nc(-c2cccc(-c3cccc(-c4cc5ncc(CNC[C@@H]6CCC(=O)N6)cc5cn4)c3Cl)c2Cl)ccc1CNC[C@@H]1CCC(=O)N1 [Example 258, (S)-5-((((6-(2,2′-Dichloro-3′-(3-(((((S)-5-oxopyrrolidin-2-yl)methyl)amino)methyl)-1,6-naphthyridin-7-yl)-[1,1′-biphenyl]-3-yl)-2-methoxypyridin-3-yl)methyl)amino)methyl) pyrrolidin-2-one]	0.1 nM
COc1nc(-c2cccc(-c3cccc(-c4ccn5c(=O)c(CN[C@@H](C)C(N)=O)cnc5c4)c3Cl)c2Cl)ccc1CNC[C@@H]1CCC(=O)N1 [Example 260, (2S)-2-[[8-[2-Chloro-3-[2-chloro-3-[6-methoxy-5-[[[(2S)-5-oxopyrrolidin-2-yl]methylamino]methyl]-2-pyridyl]phenyl]phenyl]-4-oxo-pyrido[1,2-a]pyrimidin-3-yl]methylamino]propenamide]	0.1 nM
O=C1CC[C@@H](CNCc2cnc3cc(-c4cccc(-c5cccc(-c6ccc7c(n6)OCCNC7)c5Cl)c4Cl)ccn3c2=O)N1 [Example 261, (S)-8-(2,2′-Dichloro-3′-(2,3,4,5-tetrahydropyrido[3,2-f][1,4]oxazepin-8-yl)-[1,1′-biphenyl]-3-yl)-3-((((5-oxopyrrolidin-2-yl)methyl)amino)methyl)-4H-pyrido[1,2-a]pyrimidin-4-one]	250 nM
COc1nc(-c2cccc(-c3cccc(-c4ccn5c(=O)c(CNC[C@H](C)O)c(OC)nc5c4)c3Cl)c2Cl)ccc1CNC[C@@H]1CCC(=O)N1 [Example 262]	6.1 nM
CNC(=O)[C@H](C)N(C)Cc1cnc2cc(-c3cccc(-c4cccc(-c5ccc(CNC[C@@H]6CCC(=O)N6)c(OC)n5)c4Cl)c3Cl)ccn2c1=O [Example 263, (S)-2-(((8-(2,2′-dichloro-3′-(6-methoxy-5-(((((S)-5-oxopyrrolidin-2-yl)methyl)amino)methyl)pyridin-2-yl)-[1,1′-biphenyl]-3-yl)-4-oxo-4H-pyrido[1,2-a]pyrimidin-3-yl)methyl)(methyl)amino)-N-methylpropanamide]	0.6 nM
COc1nc(-c2cccc(-c3cccc(-c4ccn5c(=O)c(CNCCN6CCNC(=O)C6)cnc5c4)c3Cl)c2Cl)ccc1CNC[C@@H]1CCC(=O)N1 [Example 264, (S)-8-(2,2′-dichloro-3′-(6-methoxy-5-((((5-oxopyrrolidin-2-yl)methyl)-amino)-methyl)-pyridin-2-yl)-[1,1′-biphenyl]-3-yl)-3-(((2-(3-oxopiperazin-1-yl)ethyl)amino)methyl)-4H-pyrido[1,2-a]pyrimidin-4-one]	0.1 nM
COC(=O)[C@H]1CCN(Cc2c(C)nc3cc(-c4cccc(-c5cccc(-c6ccc(CNC[C@@H]7CCC(=O)N7)c(OC)n6)c5Cl)c4Cl)ccn3c2=O)C1 [Example 265, (S)-Methyl 1-((8-(2,2′-dichloro-3′-(6-methoxy-5-(((((S)-5-oxopyrrolidin-2-yl)methyl)amino)methyl)pyridin-2-yl)-[1,1′-biphenyl]-3-yl)-2-methyl-4-oxo-4H-pyrido[1,2-a]pyrimidin-3-yl)methyl)pyrrolidine-3-carboxylate]	0.7 nM
COc1nc(-c2cccc(-c3cccc(-c4ccn5c(=O)c(CNCCN6CCS(=O)(=O)CC6)cnc5c4)c3Cl)c2Cl)ccc1CNC[C@@H]1CCC(=O)N1 [Example 266, (S)-8-(2,2′-dichloro-3′-(6-methoxy-5-((((5-oxopyrrolidin-2-yl)methyl)-amino)methyl)-pyridin-2-yl)-[1,1′-biphenyl]-3-yl)-3-(((2-(1,1-dioxidothiomorpholino)-ethyl)-amino)-methyl)-4H-pyrido[1,2-a]pyrimidin-4-one]	17.2 nM
COc1nc(-c2cccc(-c3cccc(-c4ccc5c(n4)OCCN(CCO)C5)c3Cl)c2Cl)ccc1CNC[C@@H]1CCC(=O)N1 [Example 267, (S)-5-((((6-(2,2′-Dichloro-3′-(4-(2-hydroxyethyl)-2,3,4,5-tetrahydropyrido[3,2-f][1,4]oxazepin-8-yl)-[1,1′-biphenyl]-3-yl)-2-methoxypyridin-3-yl)methyl)amino)methyl)pyrrolidin-2-one]	0.2 nM
O=C1CC[C@@H](CNCc2cnc3cc(-c4cccc(-c5cccc(-c6ccc7c(n6)OCCN(CCO)C7)c5Cl)c4Cl)ccn3c2=O)N1 [Example 268, (S)-8-(2,2′-Dichloro-3′-(4-(2-hydroxyethyl)-2,3,4,5-tetrahydropyrido[3,2-f][1,4]oxazepin-8-yl)-[1,1′-biphenyl]-3-yl)-3-((((5-oxopyrrolidin-2-yl)methyl)amino)methyl)-4H-pyrido[1,2-a]pyrimidin-4-one]	710 nM
COC(=O)CNCc1c(C)nc2cc(-c3cccc(-c4cccc(-c5ccc(CNC[C@@H]6CCC(=O)N6)c(OC)n5)c4Cl)c3Cl)ccn2c1=O [Example 269, (S)-Methyl 2-(((8-(2,2′-dichloro-3′-(6-methoxy-5-((((5-oxopyrrolidin-2-yl)methyl)amino)methyl)pyridin-2-yl)-[1,1′-biphenyl]-3-yl)-2-methyl-4-oxo-4H-pyrido[1,2-a]pyrimidin-3-yl)methyl)amino)acetate]	1 nM
